Experimental data as given in patent US20180235919A1, “System and Method For Treating Atheroma Formation” (Lonza Inc., priority 2015, published 2018).

What was measured:
[1] = Plasma TMAO concentration by LC-MS; type: in vivo, mouse; details: high dose of L-carnitine (352 mg/kg), oral gavage once daily, ApoE KO/AAV-CETP mice (FIG. 4)
Experimental: (§1) ApoE KO mice, male and 6 to 7 weeks of age, were transfected in vivo with AAV-CETP. Two weeks after infection, CETP expression in plasma was verified using a commercially available ELISA kit, and the mice were placed on a Western (high-fat) diet.
(§2) The mice were sorted into several groups based on matching initial total cholesterol and verified CETP expression: 1 control group receiving a dose of dH2O. 2—a group receiving a high dose of L-carnitine (35.2 mg/mL dH2O). 3—a group receiving a low dose of L-carnitine (8.7mg/mL dH2O). 4—a group receiving a high dose of L-carnitine (35.2 mg/mL dH2O) and a dose of methimazaole (1.5 mg/mL dH2O). 5—a group receiving a dose of methimazaole (1.5 mg/mL dH2O).
(§3) Dosing began when the mice reached 10 weeks of age and continued for 12 weeks. Drugs were administered once daily by oral gavage. The animals' body weights were measured weekly.
The concentrations of L-carnitine and TMAO in the plasma were measured using a liquid chromatography mass spectrometry method. A deuterium labeled L-carnitine stock standard was prepared using the weigh by difference technique. About 5 mg of d9-L-carnitine from Cambridge Isotope Laboratories were added to a 10 mL volumetric flask via a weighing funnel or weighing paper, and water:methanol=1:1 was used to dissolve the sample. […]

[2] = system: mouse model of atherosclerosis; test: Plaque in the aortic root (aortic sinus sections, hematoxylin and eosin); type: in vivo; details: after 12 weeks of treatment, ApoE KO/AAV-CETP mice on Western diet (FIG. 7)
Experimental: as §1, §2, §3

[3] = system: mouse model of atherosclerosis; test: En face analysis of thoracic aorta lesions (Sudan IV staining); type: in vivo; details: for amount of plaque present in the thoracic aorta (en face analysis): after 12 weeks of treatment, ApoE KO/AAV-CETP mice on Western diet (FIG. 5)
Experimental: as §1, §2, §3
The effect of treatment with L-carnitine and/or methimazole on atherosclerosis progression was determined by measuring the amount of lesions present in the thoracic aorta and the sinotubular junction of the aortic root. After 12 weeks of treatment, the mice were sacrificed, and their tissues were removed for analysis. The En-face thoracic aortas were isolated and prepared for analysis by trimming present fat and fixing the aortas in formalin for 48-72 hours. For morphometric en face analysis, the aortas were laid out, pinned on black matrix, and stained with the lipid binding dye Sudan IV to determine the percentage of the thoracic aorta with lesion present. A Nikon computerized image analysis system was used to image the vessels for surface involvement.

[4] = Plasma L-carnitine concentration by LC-MS; type: in vivo, mouse; details: oral gavage once daily, ApoE KO/AAV-CETP mice (FIG. 3)
Experimental: as §1, §2, §3
The concentrations of L-carnitine and TMAO in the plasma were measured using a liquid chromatography mass spectrometry method. A deuterium labeled L-carnitine stock standard was prepared using the weigh by difference technique. About 5 mg of d9-L-carnitine from Cambridge Isotope Laboratories were added to a 10 mL volumetric flask via a weighing funnel or weighing paper, and water:methanol=1:1 was used to dissolve the sample. A deuterium labeled TMAO stock standard was prepared by accurately weighing 25±2 mg of d9-trimethylamine N-oxide reference standard, transferring the sample into a 25 mL volumetric flask, adding about 15 mL of water:methanol=1:1, and vortexing until dissolved. The flask was then filled to volume with water:methanol=1:1
Stock standards of deuterium labeled L-carnitine and deuterium labeled TMAO were prepared using 5 mg/10 mL water/methanol of d9-L-carnitine and 25 mg/25 mL water/methanol of d9-TMAO. These stock standards were used to prepare an internal standard by adding 200 μL of d9-L-carnitine stock standard and 10 μL of d9-TMAO into a 50 mL volumetric flask, adding acetonitrile to volume, and mixing well.
Calibration standards were then prepared. […]

Row | Structure (SMILES) | concentration of TMAO compared to the vehicle control [1] | amount of plaque in the aortic root [2] | amount of plaque present in the thoracic aorta (en face analysis) [3] | concentration of L-carnitine in the plasma compared to the control vehicle ([4]; high dose of L-carnitine (352 mg/kg)) | concentration of L-carnitine in the plasma compared to the control vehicle ([4]; low dose of L-carnitine (87 mg/kg)) | percent lesion area of the thoracic aorta ([3]; TMAO levels higher than 0.1 ppm versus TMAO levels lower than 0.1 ppm (FIG. 6)) | concentration of L-carnitine in comparison to the control vehicle ([4]; methimazole (15 mg/kg))
1 | C[N+](C)(C)C[C@H](O)CC(=O)[O-] [L-carnitine] | statistically significant increase | small but significant reductions | no significant changes | significant increase | significant increase |  | 
2 | C[N+](C)(C)[O-] [TMAO, trimethylamine N-oxide] |  |  |  |  |  | significant decrease | 
3 | Cn1cc[nH]c1=S [methimazole] |  | small but significant reductions | no significant changes |  |  |  | significant decrease
